Experimental data reported in patent US20080096807A1, “Cyclic vasoactive intestinal peptide receptor-2 agonists” (priority 2006, published 2008).
Where two headings read alike, the source gives them in different places. Bridge positions count the residues as written; N and C are the ends. Square brackets hold non-standard residues; d marks the D form. Peptide text beside a SMILES is read from it. ξ: configuration not given here. Thr(3ξ) = CC(O)[C@H](N)C(=O)O; Nle = CCCC[C@H](N)C(=O)O

Columns and labels:
[1] = target: T1, human neutrophil elastase (Homo sapiens, UniProt P08246); experiment: Peptide stability to neutrophil elastase (RP HPLC ESI MS); details: halftime with human neutrophil elastase 1 to 2 μg/mL in PBS, ambient temperature, normalized to halftime of the reference standard
T1 sequence (P08246 30-247 limits assumed): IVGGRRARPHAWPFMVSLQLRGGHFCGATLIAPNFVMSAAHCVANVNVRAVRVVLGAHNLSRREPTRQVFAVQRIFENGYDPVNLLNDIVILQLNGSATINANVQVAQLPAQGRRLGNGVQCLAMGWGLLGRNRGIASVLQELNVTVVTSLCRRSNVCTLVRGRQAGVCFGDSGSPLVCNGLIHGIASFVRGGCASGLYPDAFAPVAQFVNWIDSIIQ
Protocol: The proteolytic stabilities of peptide analogs were established with reversed phase high pressure liquid chromatography (RP HPLC) electrospray ionization mass spectrometry (ESI MS). Peptide analogs were incubated with human neutrophile elastase and the quantity of undigested analogs was determined by ESI MS at appropriate time points. Multiple peptide analogs could be included in one experiment as long as they could be differentiated by HPLC retention time and/or by molecular weight. Ac-His Ac-[sequence]Nle-[sequence]NH2 was used in all experiments as a control and as a reference standard. The simultaneous use of multiple peptide analogs together with a reference standard allowed for compensation for variations in the proteolytic fidelity of the enzyme over the multiple experiments. Integrated ion currents obtained for the individual undigested peptide were used for quantitation. For calculation of halftime first-order kinetic behavior was assumed and all calculations were normalized to the halftime of the reference standard.
Peptide stock solutions were prepared in water to a concentration of 2.5 mg/mL. Unless in use, all stock solutions were kept at −20° C. […] Concentrations of the peptide analogs were adjusted accordingly. In order to do the proteolytic digestion, peptides were dissolved in phosphate buffered saline (PBS) to a concentration of 0.1 mg/mL. As many as six different peptide analogs were mixed into one 50 μL reaction volume. The reference standard was added to all experiments as a reference and internal standard. Elastase (Human Neutrophil, Calbiochem, Cat # 324681) was added from an elastase stock solution to a concentration of 1 to 2 μg/mL. Different amounts of the enzyme were chosen to compensate for the differences in the proteolytic stabilities of the peptide analogs. Previously, a stock solution of elastase was prepared in water at a concentration of 1 mg/mL. Small aliquots of the enzyme stock solution were kept at −20° C. to better maintain the enzyme activity by limiting the number of thaw and freeze cycles.
The digestion was done at ambient temperature in an autosampler tube within the autosampler of the HPLC system (Agilent 1100 Series). For a time course, 5 μL aliquots were injected in 70 minute intervals onto the reversed phase HPLC column (Phenomenex, Luna C18, 3μ, 100 ↑, 150×2.00 mm). For the starting time point an aliquot was injected just prior to the addition of the proteolytic enzyme. A total of eight time points could be recorded from one experiment, including the starting point. Peptides were separated on the reversed phase column with a 50 minute gradient of 5% to 30% organic phase. The aqueous phase was 0.05% (v/v) of trifluoroacetic acid in water and the organic one was 0.045% (v/v) of trifluoroacetic acid in acetonitrile. Absorbances were recorded at 214 and 280 nm respectively. All of the column effluent was introduced into the turbo V source of the electrospray ionization mass spectrometer (ABI 4000 QTrap LC/MS/MS System). Mass spectra were acquired in Q3MS mode in a mass range to include all triply charged ions of the non degraded peptide analogs. Care was taken to assure that peptide analogs could clearly be differentiated either by the chromatographic retention time or by the difference in molecular weight. Relative quantities of the respective undigested peptide analog were calculated from the integrated total ion current. A window of 2.5 Da was chosen and the manufacturer's software was used to integrate the individual ion currents. The overall halftime of an individual peptide analog was calculated by assuming first-order kinetic behavior and was normalized with respect to the halftime of the reference standard.

[2] = system: LPS-induced lung inflammation in male C57BL/6 mice; experiment: LPS-induced lung inflammation in male C57BL/6 mice (BAL neutrophilia); type: in vivo; details: BAL fluid neutrophilia
Protocol: C57bl/6 mice are pretreated with vehicle or drug prior to an aerosol expose to lipopolysacchride (LPS, 500 μg/ml in sterile saline) for 15-30 minutes. The aerosol is generated by a Pari Ultra neb jet nebulizer, the outlet of which is connected to a small clear plastic chamber [H×W×D, 10.7×25.7×11 cm (4×10×4.5 in)] containing the animals. Bronchoalveolar lavage (BAL) is performed 24 hr later to determine the intensity of cell inflammation. BAL procedure is performed as described below.
Mice are pretreated with vehicle or drug prior to an intranasal administration of lipopolysacchride (0.05-0.3 mg/kg in sterile saline; 50 μl total volume, 25 μl/nostril). Intranasal administration is performed by presenting small droplets of the dosing solution at the nostril using a 25-50 μl eppendorff pipet. BAL is performed 3 to 24 h post LPS challenged as described above to determine the intensity of cell inflammation.
24 h following LPS exposure, animals are anesthetized with pentobarbital (80-100 mg/kg, i.p.), ketamine/xyzaline (80-120 mg/kg/2-4 mg/kg, i.p.) or urethane (1.5-2.4 g/kg, i.p.); and through a small midline neck incision (15-20 mm), the trachea is exposed and cannulated with 20-gauge tubing adapter. Lungs are lavaged with 2×1 ml sterile Hank's balanced salt solution without Ca++ and Mg++(HBSS). Lavage fluid is recovered after 30 sec by gentle aspiration and pooled for each animal. Samples are then centrifuged at 2000 rpm for 10 minutes at 5° C. Supernatant is aspirated, and red blood cells are lysed from the resulting pellet with 0.5 ml distilled water for 30 sec before restoring osmolarity to the remaining cells by the addition of 5 ml of HBSS. Samples are recentrifuged at 2000 rpm for 10 minutes at 5° C. and supernatant aspirated. The resulting pellet is resuspended in 1 ml of HBSS. Total cell number is determined by Trypan Blue (Sigma Chemical, St. Louis, Mo.) exclusion from an aliquot of cell suspension using a hemocytometer or coulter counter. For differential cell counts, an aliquot of the cell suspension is centrifuged in a Cytospin (5 min, 1300 rpm; Shandon Southern Instruments, Sewickley, Pa.) and the slides fixed and stained with a modified Wright's stain (Hema 3 stain kit, Fisher Scientific). Standard morphological criteria is used in classifying at least 300 cells under light microscopy. Data in Table 3 is expressed as BAL cells×10^4/animal for neutrophils and total cells, or percent inhibition of the LPS induced BAL fluid neutrophilia response.

VPAC2 receptor = target: T2, VPAC2 receptor (Homo sapiens, UniProt P41587); experiment: Sup-T1 cAMP agonist assay; type: cell-based
T2 construct: The human T-lymphoid cell line Sup-Ti, which expresses the VPAC2 receptor; host or cells: Sup-T1 (Sup-Ti [sic]) human T-lymphoid cell line
T2 sequence (P41587 24-438): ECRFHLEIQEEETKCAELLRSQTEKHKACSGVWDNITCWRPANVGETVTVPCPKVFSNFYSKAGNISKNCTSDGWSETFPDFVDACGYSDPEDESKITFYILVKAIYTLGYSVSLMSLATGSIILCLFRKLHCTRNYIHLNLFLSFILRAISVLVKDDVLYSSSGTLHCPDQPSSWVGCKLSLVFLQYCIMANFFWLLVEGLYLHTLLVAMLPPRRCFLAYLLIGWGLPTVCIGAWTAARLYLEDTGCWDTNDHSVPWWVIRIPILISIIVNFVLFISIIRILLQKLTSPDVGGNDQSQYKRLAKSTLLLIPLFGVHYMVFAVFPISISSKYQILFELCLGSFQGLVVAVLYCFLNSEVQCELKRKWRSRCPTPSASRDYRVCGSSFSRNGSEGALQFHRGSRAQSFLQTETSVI
Protocol: The human T-lymphoid cell line Sup-Ti, which expresses the VPAC2 receptor, was obtained from the American Type Culture Collection (ATCC, CRL-1942) and maintained in growth medium at densities between 0.2 and 2×10^6 cells/ml in a 37° C. CO2 incubator. The growth medium was RPMI 1640 (Invitrogen) supplemented with 25 mM HEPES buffer and 10% fetal bovine serum (Gemini Bioproducts).
To evaluate VPAC2 agonist compound activity, cells in log-phase growth were washed once with growth medium at room temperature and plated into 96-well plates at a density of 4×10^4 cells per well in 150 uL of growth medium. Fifty uL of the compounds to be tested, prepared at appropriate concentrations in growth medium, were then added to designated wells. After 5 min at room temperature, the cells were lysed by adding 25 uL of lysis reagent 1A (cAMP Biotrak EIA system, Amersham Biosciences, RPN225) to each well. The 96-well plates were kept at room temperature for 10 min with shaking and then stored at 4° C. until analysis for cAMP (within 2 hr).
Cyclic AMP levels were determined in 100 uL of each lysate using the cAMP Biotrak Enzymeimmunoassay (EIA) kit according to the manufacture's instructions (Amersham Biosciences, RPN225). The activity of each VPAC2 agonist compound (EC50 value) was estimated by fitting the 7-concentration dose response data to a sigmoidal dose-response equation provided by the GraphPad Prism program (GraphPad Software, Inc.).

[3] = human T-lymphoid cell line Sup-T1 expressing VPAC2 receptor, cAMP EIA, 5 min at room temperature, read-out: Sup-T1 cAMP EC50

| Structure (SMILES) | Relative elastase stability [1] | Inhibition of LPS-induced neutrophilia ([2]; Dose 0.1%) | EC50 (VPAC2 receptor; [3]) [nM] | Inhibition of LPS-induced neutrophilia ([2]; Dose 0.01%) | EC50 (VPAC2 receptor) [nM] |
| --- | --- | --- | --- | --- | --- |
| CCCC[C@H](NC(=O)[C@H](CCC(N)=O)NC(=O)[C@H](CCCCN)NC(=O)[C@H](CCCNC(=N)N)NC(=O)[C@H](CC(C)C)NC(=O)[C@H](CCCCN)NC(=O)[C@@H](NC(=O)[C@H](Cc1ccc(O)cc1)NC(=O)[C@H](CC(N)=O)NC(=O)[C@H](CCC(=O)O)NC(=O)[C@@H](NC(=O)[C@H](Cc1ccccc1)NC(=O)[C@H](CO)NC(=O)[C@H](C)NC(=O)[C@H](CC(=O)O)NC(=O)[C@H](CO)NC(=O)[C@H](Cc1c[nH]cn1)NC(C)=O)C(C)O)C(C)O)C(=O)N[C@@H](C)C(=O)N[C@@H](C)C(=O)N[C@@H](CCCCN)C(=O)N[C@H]1CCCCNC(=O)C[C@@H](C(=O)N[C@@H](CC(C)C)C(=O)N[C@@H](CCCCN)C(=O)N[C@@H](CCCCN)C(=O)NCC(=O)NCC(=O)N[C@H](C(N)=O)C(C)O)NC(=O)[C@H](CC(N)=O)NC(=O)[C@H](CC(C)C)NC(=O)[C@H](Cc2ccc(O)cc2)NC1=O (stereo partly shown) [Example 2] (Ac-HSDASF[Thr(3ξ)]ENY[Thr(3ξ)]KLRKQ[Nle]AAKKYLNDLKKGG[Thr(3ξ)]-NH2; lactam 21-25) | 5.2 | + (+ 10-30%) | 69.7 |  |  |
| CCCC[C@H](NC(=O)[C@H](C)NC(=O)[C@H](CCCCN)NC(=O)[C@H](CCCNC(=N)N)NC(=O)[C@H](CC(C)C)NC(=O)[C@H](CCCCN)NC(=O)[C@@H](NC(=O)[C@H](Cc1ccc(O)cc1)NC(=O)[C@H](CC(N)=O)NC(=O)[C@H](CCC(=O)O)NC(=O)[C@@H](NC(=O)[C@H](Cc1ccccc1)NC(=O)[C@H](CO)NC(=O)[C@H](C)NC(=O)[C@H](CC(=O)O)NC(=O)[C@H](CO)NC(=O)[C@H](Cc1c[nH]cn1)NC(C)=O)C(C)O)C(C)O)C(=O)N[C@@H](CCC(=O)O)C(=O)N[C@@H](C)C(=O)N[C@@H](CCCCN)C(=O)N[C@H]1CCCCNC(=O)C[C@@H](C(=O)N[C@@H](CC(C)C)C(=O)N[C@@H](CCCCN)C(=O)N[C@@H](CCCCN)C(=O)NCC(=O)NCC(=O)N[C@H](C(N)=O)C(C)O)NC(=O)[C@H](CC(N)=O)NC(=O)[C@H](CC(C)C)NC(=O)[C@H](Cc2ccc(O)cc2)NC1=O (stereo partly shown) [Example 10] (Ac-HSDASF[Thr(3ξ)]ENY[Thr(3ξ)]KLRKA[Nle]EAKKYLNDLKKGG[Thr(3ξ)]-NH2; lactam 21-25) | 7.4 |  | 447 | ++ (++ >30%) |  |
| CCCC[C@H](NC(=O)[C@H](CCC(N)=O)NC(=O)[C@H](CCCCN)NC(=O)[C@H](CCCNC(=N)N)NC(=O)[C@H](CC(C)C)NC(=O)[C@H](CCCCN)NC(=O)[C@@H](NC(=O)[C@H](Cc1ccc(O)cc1)NC(=O)[C@H](CC(N)=O)NC(=O)[C@H](CCC(=O)O)NC(=O)[C@@H](NC(=O)[C@H](Cc1ccccc1)NC(=O)[C@H](CO)NC(=O)[C@H](C)NC(=O)[C@H](CC(=O)O)NC(=O)[C@H](CO)NC(=O)[C@H](Cc1c[nH]cn1)NC(C)=O)C(C)O)C(C)O)C(=O)N[C@@H](CCCCN)C(=O)N[C@@H](C)C(=O)N[C@@H](CCCCN)C(=O)N[C@H]1CCCCNC(=O)C[C@@H](C(=O)N[C@@H](CC(C)C)C(=O)N[C@@H](CCCCN)C(=O)N[C@@H](CCCCN)C(=O)NCC(=O)NCC(=O)N[C@H](C(N)=O)C(C)O)NC(=O)[C@H](CC(N)=O)NC(=O)[C@H](CC(C)C)NC(=O)[C@H](Cc2ccc(O)cc2)NC1=O (stereo partly shown) [Example 9] (Ac-HSDASF[Thr(3ξ)]ENY[Thr(3ξ)]KLRKQ[Nle]KAKKYLNDLKKGG[Thr(3ξ)]-NH2; lactam 21-25) | 12.0 |  | 1200 | + (+ 10-30%) |  |
| CCCC[C@H](NC(=O)[C@H](CCC(N)=O)NC(=O)[C@H](CCCCN)NC(=O)[C@H](CCCNC(=N)N)NC(=O)[C@H](CC(C)C)NC(=O)[C@H](CCCCN)NC(=O)[C@@H](NC(=O)[C@H](Cc1ccc(O)cc1)NC(=O)[C@H](CC(N)=O)NC(=O)[C@H](CCC(=O)O)NC(=O)[C@@H](NC(=O)[C@H](Cc1ccccc1)NC(=O)[C@@H]1CCCN1C(=O)[C@H](C)NC(=O)[C@H](CC(=O)O)NC(=O)[C@H](CO)NC(=O)[C@H](Cc1c[nH]cn1)NC(C)=O)C(C)O)C(C)O)C(=O)N[C@@H](C)C(=O)N[C@@H](C)C(=O)N[C@@H](CCCCN)C(=O)N[C@H]1CCCCNC(=O)C[C@@H](C(=O)N[C@@H](CC(C)C)C(=O)N[C@@H](CCCCN)C(=O)N[C@@H](CCCCN)C(=O)NCC(=O)NCC(=O)N[C@H](C(N)=O)C(C)O)NC(=O)[C@H](CC(N)=O)NC(=O)[C@H](CC(C)C)NC(=O)[C@H](Cc2ccc(O)cc2)NC1=O (stereo partly shown) [Example 5] (Ac-HSDAPF[Thr(3ξ)]ENY[Thr(3ξ)]KLRKQ[Nle]AAKKYLNDLKKGG[Thr(3ξ)]-NH2; lactam 21-25) | 4.9 |  | 1210 |  |  |
| CCCC[C@H](NC(=O)[C@H](CCCNC(=N)N)NC(=O)[C@H](CCCCN)NC(=O)[C@H](CCCNC(=N)N)NC(=O)[C@H](CC(C)C)NC(=O)[C@H](CCCCN)NC(=O)[C@@H](NC(=O)[C@H](Cc1ccc(O)cc1)NC(=O)[C@H](CC(N)=O)NC(=O)[C@H](CCC(=O)O)NC(=O)[C@@H](NC(=O)[C@H](Cc1ccccc1)NC(=O)[C@H](CO)NC(=O)[C@H](C)NC(=O)[C@H](CC(=O)O)NC(=O)[C@H](CO)NC(=O)[C@H](Cc1c[nH]cn1)NC(C)=O)[C@@H](C)O)[C@@H](C)O)C(=O)N[C@@H](C)C(=O)N[C@@H](C)C(=O)N[C@@H](CCCCN)C(=O)N[C@H]1CCCCNC(=O)C[C@@H](C(=O)N[C@@H](CC(C)C)C(=O)N[C@@H](CC(C)C)C(=O)N[C@@H](CC(N)=O)C(=O)NCC(=O)NCC(=O)N[C@H](C(N)=O)[C@@H](C)O)NC(=O)[C@H](CC(N)=O)NC(=O)[C@H](CC(C)C)NC(=O)[C@H](Cc2ccc(O)cc2)NC1=O [Example 14] (Ac-HSDASFTENYTKLRKR[Nle]AAKKYLNDLLNGGT-NH2; lactam 21-25) | 4.5 |  |  |  | 94.1 |
